Reference: PMC12257394, “Design, Synthesis, and Biological Evaluation of Ferrocenyl–Cyclo-(Gly‑L‑Pro) Hybrids Sensitizing Multidrug-Resistant Cancer Cells to Anticancer Agents” (ACS Medicinal Chemistry Letters, 2025)
pIC50: −log10 of the molar value. Blank lines part the entries; values can stand above or below the compound they belong to.

How the values were obtained:
[1] = tested on: ABCC1-overexpressing SW620M cells; test: MDR reversal assay (ERP), SW620M; type: cell-based, human; conditions: Homo sapiens; SW620M, drug alone, n = 3
Text: (§1) We investigated the potency of 4a–e to inhibit ABC transporters (ABCB1, ABCC1, and ABCG2) by determining their enhancement of reversal potency (ERP) values. ERP represents fold changes in the IC50 values of anticancer drugs in multidrug-resistant cancer sublines (ABCB1-overexpressing SW620D, SW620E, and SW620V; ABCC1-overexpressing SW620M; ABCG2-overexpressing SW620C and SW620Mito) exposed to a combination of the investigated compounds and anticancer agents at equimolar concentrations, compared with values obtained with drugs alone (Tables S2 and S3 and Figure ).
(§2) Standards. Multidrug-resistant variants of SW620 cells were developed in our laboratory as described previously.10, 11 All cells were cultured under standard conditions (37°C, 5% CO2, 100% humidity) in high-glucose DMEM supplemented with GlutaMaxTM, HEPES (ThermoFisher Scientific, USA), and 10% fetal bovine serum (EURx, Poland). Cells were routinely tested for potential Mycoplasma contamination using the MycoProbe Mycoplasma Detection kit (R&D System, USA).
(§3) In total, 104 cells in 100 µL of complete medium were plated per well of a 96-well plate and left overnight to allow cells to adhere to the surface. Then, the cells were exposed to a desired concentration of tested compound(s). Stock solutions were prepared in DMSO and used immediately. The final DMSO concentration was constant and nontoxic (0.1% v/v). After 70-h incubation, neutral red was added to the final concentration of 1 mM. After another 2 h, the medium was aspirated, and cells were washed twice with PBS. Dye was released using 100 µL of a solubilizer (1% acetic acid in 50% ethanol) on an orbital shaker (10 min). Absorbance was read at 540 nm using EnVision Multilabel Plate Reader (Perkin Elmer, USA). Results were expressed as % of control. The IC50 parameters were calculated using GraphPad Prism version 10 (GraphPad Software, Boston, Massachusetts USA).
(§4) The enhancement of reversal potency (ERP) value determination
(§5) For MDR reversal assays, cytotoxic agents were co-administered with compounds 4a–4e at equimolar concentrations in a range of 10 nM to 100 µM. IC₅₀ values were determined in ABCB1-overexpressing SW620 cell line variants. The enhancement of reversal potency (ERP) was calculated using the following formula: ERP = IC₅₀(drug)MDR / IC₅₀(drug + compound)MDR. All experiments were performed in triplicate (n = 3).

[2] = tested on: SW620M cells (methotrexate-resistant); test: Neutral red uptake viability assay, SW620M; type: cell-based, human; conditions: Homo sapiens, substance alone (xlsx), read-out: SW620M IC50
Procedure: (§6) In general, compounds 4a–e exerted little or no cytotoxic effect on either SW620 or multidrug-resistant sublines even at 10 μM, with the remarkable exception of SW620C (cisplatin-selected variant of SW620) cells, which turned out to be relatively susceptible toward ferrocenyl 4a–c. […] This trend may reflect steric or electronic contributions to cellular uptake or interaction with intracellular targets. […] However, since E/Z isomeric data are currently available only for compound 4c, this hypothesis requires validation. To quantify this effect, IC50 values were determined (Table ). […]
(§7) The normal lung fibroblast MRC-5 and colorectal adenocarcinoma SW620 cell lines used in this experiment were purchased from American Type Culture Collection (USA) via LGC […]
as §2
as §3, with “Massachusetts USA). […]” for “Massachusetts USA).”
(§8) All experiments were performed in triplicate (n = 3).

SW620 cells [3] = test: MDR reversal assay (coadministration with anticancer drug), SW620; type: cell-based, human; conditions: SW620, drug alone, n = 3
Text: as §1, §2, §3, §4, §5

SW620 cells [4] = test: Neutral red uptake viability assay, SW620; type: cell-based, human; conditions: SW620, substance alone (xlsx), read-out: SW620 IC50
Procedure: as §6, with “To evaluate this aspect, we investigated the viability of SW620 colon cancer cells and their multidrug-resistant variants (overexpressing ABCB1, ABCC1, and ABCG2) exposed to 1 and 10 μM 4a–e using a neutral red uptake assay (Table ). In” for “In”
as §7, §2
as §3, with “Massachusetts USA). […]” for “Massachusetts USA).”
as §8

[5] = tested on: SW620E cells (etoposide-resistant); test: Neutral red uptake viability assay, SW620E; type: cell-based, human; conditions: Homo sapiens, substance alone (xlsx), read-out: SW620E IC50
Procedure: as §6, with “To evaluate this aspect, we investigated the viability of SW620 colon cancer cells and their multidrug-resistant variants (overexpressing ABCB1, ABCC1, and ABCG2) exposed to 1 and 10 μM 4a–e using a neutral red uptake assay (Table ). In” for “In”
as §7, §2
as §3, with “Massachusetts USA). […]” for “Massachusetts USA).”
as §8

[6] = tested on: ABCB1-overexpressing SW620E cells; test: MDR reversal assay (ERP), SW620E; type: cell-based, human; conditions: Homo sapiens; SW620E, drug alone, n = 3
Text: as §1, §2, §3, §4, §5

[7] = tested on: ABC-overexpressing cancer cells; set-up: method as in PMID 27326336; conditions: earlier finding; citation mark lost in the text, probably ref 20; cited from earlier work
[8] = tested on: SW620Mito cells (mitoxantrone-resistant); test: Neutral red uptake viability assay, SW620Mito; type: cell-based, human; conditions: Homo sapiens, substance alone (xlsx), read-out: SW620Mito IC50
Procedure: as §6, §7, §2
as §3, with “Massachusetts USA). […]” for “Massachusetts USA).”
as §8

[9] = tested on: ABCG2-overexpressing SW620Mito cells; test: MDR reversal assay (ERP), SW620Mito; type: cell-based, human; conditions: Homo sapiens; SW620Mito, drug alone, n = 3
Text: as §1, §2, §3, §4, §5

[10] = tested on: SW620V cells (vincristine-resistant); test: Neutral red uptake viability assay, SW620V; type: cell-based, human; conditions: Homo sapiens, substance alone (xlsx), read-out: SW620V IC50
Procedure: as §6, §7, §2, §3, §4, §5

[11] = tested on: ABCB1-overexpressing SW620V cells; test: MDR reversal assay (ERP), SW620V; type: cell-based, human; conditions: Homo sapiens; SW620V, drug alone, n = 3
Text: as §1, §2, §3, §4, §5

[12] = tested on: ABCG2-overexpressing SW620C cells; test: MDR reversal assay (ERP), SW620C; type: cell-based, human; conditions: SW620C, drug alone, n = 3
Text: as §1, §2, §3, §4, §5

[13] = tested on: SW620D cells (doxorubicin-resistant); test: Neutral red uptake viability assay, SW620D; type: cell-based, human; conditions: Homo sapiens, substance alone (xlsx), read-out: SW620D IC50
Procedure: as §6, §7, §2, §3, §4, §5

MRC-5 fibroblasts = test: Neutral red uptake viability assay, MRC-5; type: cell-based, human; conditions: MRC-5, 10 μM, 72 h exposure, n = 3, ± SD
Procedure: as §7, §2
as §3, with “Massachusetts USA). […]” for “Massachusetts USA).”
as §8

Structure (SMILES): CN(Cc1cnc2nc(N)nc(N)c2n1)c1ccc(C(=O)N[C@@H](CCC(=O)O)C(=O)O)cc1 [Methotrexate, reference compound]
pIC50 [1]: 4.27
pIC50 [2]: 4.27
pIC50 (SW620 cells [3]; Homo sapiens, SW-620): 5.20
pIC50 (SW620 cells [4]; Homo sapiens, SW-620): 5.20

Structure (SMILES): COc1cc([C@@H]2c3cc4c(cc3[C@@H](O[C@@H]3O[C@@H]5CO[C@@H](C)O[C@H]5[C@H](O)[C@H]3O)[C@H]3COC(=O)[C@H]23)OCO4)cc(OC)c1O [Etoposide, reference compound]
pIC50 [5]: 4.80
pIC50 (SW620 cells [3]; Homo sapiens, SW-620): 5.59
pIC50 (SW620 cells [4]; Homo sapiens, SW-620): 5.59
pIC50 [6]: 4.80

Structure (SMILES): CC(C)(C)c1[nH]cnc1/C=c1\[nH]c(=O)/c(=C/c2ccccc2)[nH]c1=O [plinabulin]
activity against ABC-overexpressing cancer cells [7]: inactive

Structure (SMILES): O=C1c2c(O)ccc(O)c2C(=O)c2c(NCCNCCO)ccc(NCCNCCO)c21 [Mitoxantrone, reference compound]
pIC50 (SW620 cells [3]; Homo sapiens, SW-620): 6.82
pIC50 (SW620 cells [4]; Homo sapiens, SW-620): 6.82
pIC50 [8]: 5.20
pIC50 [9]: 5.20

pIC50 [10]: 4.61
pIC50 (SW620 cells [3]; Homo sapiens, SW-620): 6.90
pIC50 (SW620 cells [4]; Homo sapiens, SW-620): 6.90
pIC50 [11]: 4.61
Structure (SMILES): CC[C@]1(O)C[C@H]2CN(CCc3c([nH]c4ccccc34)[C@@](C(=O)OC)(c3cc4c(cc3OC)N(C=O)[C@H]3[C@@](O)(C(=O)OC)[C@H](OC(C)=O)[C@]5(CC)C=CCN6CC[C@]43[C@@H]65)C2)C1 [Vincristine, reference compound]

Structure (SMILES): N.N.[Cl][Pt][Cl] [Cisplatin, reference compound]
pIC50 [12]: 4.55
pIC50 (SW620 cells [3]): 5.36
pIC50 (SW620 cells [4]): 5.36

Structure (SMILES): COc1cccc2c1C(=O)c1c(O)c3c(c(O)c1C2=O)C[C@@](O)(C(=O)CO)C[C@@H]3O[C@H]1C[C@H](N)[C@H](O)[C@H](C)O1 [Doxorubicin, reference compound]
pIC50 (SW620 cells [3]; Homo sapiens, SW-620): 6.47
pIC50 (SW620 cells [4]; Homo sapiens, SW-620): 6.47
pIC50 [13]: 5.37

Structure (SMILES): COc1ccc2c(C[C@@H]3NC(=O)[C@@H]4CCCN4C3=O)c(CC=C(C)C)[nH]c2c1 [TrpA, tryprostatin A, reference compound]
survival rate (MRC-5 fibroblasts): 97 ± 11%
